Measured values: patent US9827292B2, “Use of KGF in the treatment of menopausal disorders” (Università degli Studi di Roma “La Sapienza”, priority 2012, dated 2017)

B1: keratinocyte growth factor (protein, listed as Homo sapiens)
chain: MHKWILTWILPTLLYRSCFHIICLVGTISLACNDMTPEQMATNVNCSSPERHTRSYDYMEGGDIRVRRLFCRTQWYLRIDKRGKVKGTQEMKNNYNIMEIRTVAVGIVAIKGVESEFYLAMNKEGKLYAKKECNEDCNFKELILENHYNTYASAKWTHNGGEMFVALNQKGIPVRGKKTKKEQKTAHFLPMAIT
notes: human recombinant KGF (Upstate Biotechnology)

Assays:
MAPK ERK1 and 2 = assay: Western blot of ERK phosphorylation in MCF-7 cells; assay type: cell-based, human; conditions: 20 ng/ml, FIG. 2A; for activation (phosphorylation) of ERK1 and 2: 5 and 30 minutes of treatment
Description: (§1) The oestrogen receptor α-positive MCF-7 human breast adenocarcinoma cell line, acquired from American Type Culture Collection (no. HTB-22, ATCC-LGC Promochem, Teddington, UK), was cultured in Dulbecco's modified eagle's medium (DMEM; Invitrogen, Karlsruhe, Germany), supplemented with 10% foetal bovine serum (FBS; Invitrogen) and antibiotics. Primary cultures of human oestrogen-sensitive keratinocytes (KCs) were established from 1 cm^2 full-thickness mucosal biopsy of the vaginal vestibule. Following enzymatic dissociation, the keratinocytes were seeded onto culture plates coated with collagen IV (10 mg/ml), as previously reported [Panici et al, 2007], and were maintained in basal medium of the keratinocytes (KBM, Lonza) supplemented with aliquots of KGM (Lonza), with medium change twice a week. For all the experiments with 17β-oestradiol (E2) and tamoxifen, the MCF-7 cells were cultivated in DMEM without phenol red with 10% FBS treated with dextran/carbon (Invitrogen), and the KCs were transferred to a steroid medium of reduced concentration (KGM without EGF and BPE). Both MCF-7 and KC were deprived of serum for 4 hours and then treated for 48 h with human recombinant KGF (Upstate Biotechnology, Lake Placid, N.Y.), E2 (Sigma-Aldrich, Milan, Italy), tamoxifen (Sigma-Aldrich, 100 nM) or combinations thereof.
MCF-7 cells untreated or treated with KGF or E2 were lysed in RIPA buffer. Total proteins (50-150 μg) were broken down under reducing conditions by 7%-10% SDS-PAGE and transferred to Immobilon-FL membranes (Millipore, Billerica, Mass.). The membranes were blocked in TBS containing 0.5% Tween 20 (TBS-T) and 5% milk for 1 hour at 25° C. and were then washed twice for 20 minutes in each case in TBS-T. The membranes were incubated overnight at 4° C. with the primary antibody. […] The bound antibody was detected by enhanced chemiluminescence detection reagents (Pierce Biotechnology, Inc, Rockford, Ill., USA), according to manufacturer's instructions. […] Densitometric analysis was performed using Quantity One Program (Bio-Rad Laboratories srl, Segrate, MI, Italy).

[1] = system: human oestrogen-sensitive keratinocytes (KCs); assay: Proliferation of primary vaginal keratinocytes (Ki67 immunofluorescence; crystal violet); assay type: cell-based; conditions: for proliferative effect in the presence of tamoxifen: tamoxifen 100 nM, anti-Ki67 and crystal violet, FIG. 1D
Description: as §1, with “Both MCF-7 and KC were deprived of serum for 4 hours and then treated for 48 h with human recombinant KGF (Upstate Biotechnology, Lake Placid, N.Y.), E2 (Sigma-Aldrich, Milan, Italy), tamoxifen (Sigma-Aldrich, 100 nM) or combinations thereof.” left out
The cells, grown on glass coverslips, were treated as described above, then fixed in 4% paraformaldehyde in phosphate-buffered saline (PBS) for 30 min at 25° C., followed by treatment with 0.1 M glycine in PBS for 20 min at 25° C. and with 0.1% Triton X-100 in PBS for an additional 5 min at 25° C. to allow permeabilisation. To assess cell proliferation, the cells were incubated with an anti-Ki67 rabbit polyclonal antibody (1:50 in PBS; Zymed Laboratories, San Francisco, Calif.), which identifies cycling cells. The primary antibody was visualised using Texas Red conjugated goat anti-rabbit IgG (1:100 in PBS; Jackson ImmunoResearch Laboratories, West Grove, Pa.). The nuclei were visualised using 4′,6-diamido-2-phenylindole dihydrochloride (DAPI) (1:10000 in PBS; Sigma-Aldrich). Fluorescence signals were analysed by recording stained images using a cooled CCD colour digital camera SPOT-2 (Diagnostic Instruments Incorporated, Sterling Heights, Mich.) and Axiovision software (Carl Zeiss Inc., Oberkochen, Germany).
The percentage of Ki67-positive cells was evaluated by counting, for each treatment, a total of 500 cells, randomly taken from ten microscopic fields in three different experiments, expressed as mean value±95% CI and recorded as graphs. For the experiments concerning localisation of ERα, the cytoskeleton of actin was visualised using TRITC phalloidin (1:100 in PBS) and ERα was visualised using an anti-ERα monoclonal antibody (Santa Cruz) (1:100 in PBS). The stained single and combined images were captured using Zeiss Apotome® and AxioVision software (Carl Zeiss, Jena, Germany) using 40× lenses.
To evaluate the cytotoxicity of cells treated with tamoxifen, the MCF-7 cells were treated as described above, fixed for 10 min in a solution of 10% acetic acid-10% methanol, stained with crystal violet (1% w/v) and photographed using a Power Shot G5 digital camera (Canon, Inc., Tokyo, Japan).

MAPK p38 = assay: Western blot of p38 phosphorylation in MCF-7 cells; assay type: cell-based, human; conditions: 20 ng/ml, 5 or 30 minutes, FIG. 2B
Description: The oestrogen receptor α-positive MCF-7 human breast adenocarcinoma cell line, acquired from American Type Culture Collection (no. HTB-22, ATCC-LGC Promochem, Teddington, UK), was cultured in Dulbecco's modified eagle's medium (DMEM; Invitrogen, Karlsruhe, Germany), supplemented with 10% foetal bovine serum (FBS; Invitrogen) and antibiotics. Primary cultures of human oestrogen-sensitive keratinocytes (KCs) were established from 1 cm^2 full-thickness mucosal biopsy of the vaginal vestibule. Following enzymatic dissociation, the keratinocytes were seeded onto culture plates coated with collagen IV (10 mg/ml), as previously reported [Panici et al, 2007], and were maintained in basal medium of the keratinocytes (KBM, Lonza) supplemented with aliquots of KGM (Lonza), with medium change twice a week. […]
MCF-7 cells untreated or treated with KGF or E2 were lysed in RIPA buffer. […] The bound antibody was detected by enhanced chemiluminescence detection reagents (Pierce Biotechnology, Inc, Rockford, Ill., USA), according to manufacturer's instructions. […] Densitometric analysis was performed using Quantity One Program (Bio-Rad Laboratories srl, Segrate, MI, Italy).

ERalpha = assay: Immunofluorescence localisation of ER in MCF-7 cells; assay type: cell-based, human; conditions: 5 or 30 min treatment, FIG. 4B
Description: The oestrogen receptor α-positive MCF-7 human breast adenocarcinoma cell line, acquired from American Type Culture Collection (no. HTB-22, ATCC-LGC Promochem, Teddington, UK), was cultured in Dulbecco's modified eagle's medium (DMEM; Invitrogen, Karlsruhe, Germany), supplemented with 10% foetal bovine serum (FBS; Invitrogen) and antibiotics. Primary cultures of human oestrogen-sensitive keratinocytes (KCs) were established from 1 cm^2 full-thickness mucosal biopsy of the vaginal vestibule. […]
The cells, grown on glass coverslips, were treated as described above, then fixed in 4% paraformaldehyde in phosphate-buffered saline (PBS) for 30 min at 25° C., followed by treatment with 0.1 M glycine in PBS for 20 min at 25° C. and with 0.1% Triton X-100 in PBS for an additional 5 min at 25° C. to allow permeabilisation. […] Fluorescence signals were analysed by recording stained images using a cooled CCD colour digital camera SPOT-2 (Diagnostic Instruments Incorporated, Sterling Heights, Mich.) and Axiovision software (Carl Zeiss Inc., Oberkochen, Germany).
The percentage of Ki67-positive cells was evaluated by counting, for each treatment, a total of 500 cells, randomly taken from ten microscopic fields in three different experiments, expressed as mean value±95% CI and recorded as graphs. […]

Row | Molecule | activation (phosphorylation) of ERK1 and 2 (MAPK ERK1 and 2) | activation of ERK 1 and 2 at longer times (MAPK ERK1 and 2; 30 min) | efficacy in terms of cell proliferation of E2 compared to KGF (Ki67-positive cells) ([1]; low doses (0.5 ng/ml), 24 h, FIG. 1A) [fold increase] | proliferative effect in the presence of tamoxifen [1] | phosphorylation of p38 (MAPK p38) | cellular localisation of ER by immunofluorescence (ERalpha) | proliferative effect compared to E2 (Ki67-positive cells) ([1]; 20 ng/ml for KGF and 2.7 ng/ml for E2, FIG. 1A) | stimulation of proliferation of the vaginal epithelium in pre-menopausal and post-menopausal populations ([1]; 20 ng/ml, KC from pre-menopausal and post-menopausal women, FIG. 1B)
1 | C[C@]12CC[C@@H]3c4ccc(O)cc4CC[C@H]3[C@@H]1CC[C@@H]2O [E2, 17β-oestradiol] | less consistent rise in the levels of phosphorylation of ERK1 and 2 limited to 5 min of treatment | considerably reduced | 1.2 | inhibited by the presence of tamoxifen | able to phosphorylate the protein p38 | movement of ER in the nucleus | – | –
2 | B1 | consistent and constant activation of MAPK | – | – | able to stimulate cell proliferation even in the presence of tamoxifen | able to phosphorylate the protein p38 | unexpected localisation of ER on the plasmatic membrane | absolutely comparable to that of the hormone | able to stimulate proliferation of the vaginal epithelium in a manner comparable to that of oestradiol
